# Tested on: S. epidermidis G4 biofilm persister
# Experiment: Effect on biofilm persisters, colony counting
# Format: cell-based, Staphylococcus epidermidis
# Conditions: vancomycin 100× MIC, 24 h, induction of persisters
# Description: The antibacterial effect of NZ2114 nanoparticles on the persistent bacteria in the biofilm was determined according to the previous study.
structure (smiles),measurement,value
CN[C@H](CC(C)C)C(=O)N[C@H]1C(=O)N[C@@H](CC(N)=O)C(=O)N[C@H]2C(=O)N[C@H]3C(=O)N[C@H](C(=O)N[C@H](C(=O)O)c4cc(O)cc(O)c4-c4cc3ccc4O)[C@H](O)c3ccc(c(Cl)c3)Oc3cc2cc(c3O[C@@H]2O[C@H](CO)[C@@H](O)[C@H](O)[C@H]2O[C@H]2C[C@](C)(N)[C@H](O)[C@H](C)O2)Oc2ccc(cc2Cl)[C@H]1O [vancomycin],Number of viable bacteria in the biofilm after vancomycin,5.3 × 10^6 CFU/mL

# Source: PMC10967427, “Polylactic Glycolic Acid-Mediated Delivery of Plectasin Derivative NZ2114 in Staphylococcus epidermidis Biofilms” (Antibiotics, 2024)
